Laboratory results as given in US20230157952A1, “METHOD FOR IMPROVING THE STABILITY OF A PHARMACEUTICAL COMPOSITION COMPRISING A HIGH PENETRATION DRUG, AND THE PHARMACEUTICAL COMPOSITION OBTAINED THEREFROM” (Techfields Inc., priority 2020, published 2023).

Test: Effect of solvent on the stability of the solution (purity at various pH values and temperature)
Format: physicochemical
Settings: 7% solution

SMILES: CCN(CC)CCOC(=O)c1ccccc1OC(C)=O.Cl
- Purity (%) at day 14 (60° C.) (solvent 25% ethanol, pH 8.0, day 14, 60° C.): 0%
- Purity(%) at day 0 (solvent 50% ethanol, pH 1.0, day 0): 99.2 ± 0.3%
- Purity(%) at day 14 (5° C.) (solvent 50% ethanol, pH 1.0, day 14, 5° C.): 92.4 ± 0.3%
- Purity(%) at day 14 (25° C.) (solvent 50% ethanol, pH 1.0, day 14, 25° C.): 63.8 ± 0.4%
- Purity(%) at day 14 (40° C.) (solvent 50% ethanol, pH 1.0, day 14, 40° C.): 0%
- Purity (%) at day 14 (60° C.) (solvent 50% ethanol, pH 1.0, day 14, 60° C.): 0%
- Purity(%) at day 0 (solvent 50% ethanol, pH 2.0, day 0): 99.5 ± 0.2%
- Purity(%) at day 14 (5° C.) (solvent 50% ethanol, pH 2.0, day 14, 5° C.): 96.9 ± 0.3%
- Purity(%) at day 14 (25° C.) (solvent 50% ethanol, pH 2.0, day 14, 25° C.): 84.7 ± 0.3%
- Purity(%) at day 14 (40° C.) (solvent 50% ethanol, pH 2.0, day 14, 40° C.): 0%
- Purity (%) at day 14 (60° C.) (solvent 50% ethanol, pH 2.0, day 14, 60° C.): 0%
- Purity(%) at day 0 (solvent 50% ethanol, pH 3.0, day 0): 99.6 ± 0.3%
- Purity(%) at day 14 (25° C.) (solvent 50% ethanol, pH 3.0, day 14, 25° C.): 89.5 ± 0.3%
- Purity(%) at day 14 (40° C.) (solvent 50% ethanol, pH 3.0, day 14, 40° C.): 3.2 ± 0.3%
- Purity (%) at day 14 (60° C.) (solvent 50% ethanol, pH 3.0, day 14, 60° C.): 0%
- Purity(%) at day 0 (solvent 50% ethanol, pH 3.7, day 0): 99.7 ± 0.2%
- Purity(%) at day 14 (5° C.) (solvent 50% ethanol, pH 3.7, day 14, 5° C.): 99.1 ± 0.3%
- Purity(%) at day 14 (25° C.) (solvent 50% ethanol, pH 3.7, day 14, 25° C.): 96.6 ± 0.2%
- Purity(%) at day 14 (40° C.) (solvent 50% ethanol, pH 3.7, day 14, 40° C.): 16.9 ± 0.3%
- Purity (%) at day 14 (60° C.) (solvent 50% ethanol, pH 3.7, day 14, 60° C.): 0%
- Purity(%) at day 0 (solvent 50% ethanol, pH 4.0, day 0): 99.8 ± 0.2%
- Purity(%) at day 14 (5° C.) (solvent 50% ethanol, pH 4.0, day 14, 5° C.): 99.2 ± 0.3%
- Purity(%) at day 14 (25° C.) (solvent 50% ethanol, pH 4.0, day 14, 25° C.): 97.2 ± 0.3%
- Purity(%) at day 14 (40° C.) (solvent 50% ethanol, pH 4.0, day 14, 40° C.): 16.8 ± 0.4%
- Purity (%) at day 14 (60° C.) (solvent 50% ethanol, pH 4.0, day 14, 60° C.): 0%
- Purity(%) at day 0 (solvent 50% ethanol, pH 4.3, day 0): 99.7 ± 0.2%
- Purity(%) at day 14 (5° C.) (solvent 50% ethanol, pH 4.3, day 14, 5° C.): 99.1 ± 0.2%
- Purity(%) at day 14 (25° C.) (solvent 50% ethanol, pH 4.3, day 14, 25° C.): 97.2 ± 0.2%
- Purity(%) at day 14 (40° C.) (solvent 50% ethanol, pH 4.3, day 14, 40° C.): 14.9 ± 0.3%
- Purity (%) at day 14 (60° C.) (solvent 50% ethanol, pH 4.3, day 14, 60° C.): 0%
- Purity(%) at day 0 (solvent 50% ethanol, pH 4.6, day 0): 99.7 ± 0.3%
- Purity(%) at day 14 (25° C.) (solvent 50% ethanol, pH 4.6, day 14, 25° C.): 96.9 ± 0.3%
- Purity(%) at day 14 (40° C.) (solvent 50% ethanol, pH 4.6, day 14, 40° C.): 4.9 ± 0.3%
- Purity (%) at day 14 (60° C.) (solvent 50% ethanol, pH 4.6, day 14, 60° C.): 0%
- Purity(%) at day 0 (solvent 50% ethanol, pH 5.0, day 0): 99.6 ± 0.2%
- Purity(%) at day 14 (25° C.) (solvent 50% ethanol, pH 5.0, day 14, 25° C.): 93.1 ± 0.3%
- Purity(%) at day 14 (40° C.) (solvent 50% ethanol, pH 5.0, day 14, 40° C.): 2.3 ± 0.2%
- Purity (%) at day 14 (60° C.) (solvent 50% ethanol, pH 5.0, day 14, 60° C.): 0%
- Purity(%) at day 0 (solvent 50% ethanol, pH 6.0, day 0): 99.5 ± 0.3%
- Purity(%) at day 14 (5° C.) (solvent 50% ethanol, pH 6.0, day 14, 5° C.): 92.9 ± 0.4%
- Purity(%) at day 14 (25° C.) (solvent 50% ethanol, pH 6.0, day 14, 25° C.): 85.5 ± 0.3%
- Purity(%) at day 14 (40° C.) (solvent 50% ethanol, pH 6.0, day 14, 40° C.): 0%
- Purity (%) at day 14 (60° C.) (solvent 50% ethanol, pH 6.0, day 14, 60° C.): 0%
- Purity(%) at day 0 (solvent 50% ethanol, pH 7.0, day 0): 99.4 ± 0.3%
- Purity(%) at day 14 (5° C.) (solvent 50% ethanol, pH 7.0, day 14, 5° C.): 88.2 ± 0.3%
- Purity(%) at day 14 (25° C.) (solvent 50% ethanol, pH 7.0, day 14, 25° C.): 61.9 ± 0.4%
- Purity(%) at day 14 (40° C.) (solvent 50% ethanol, pH 7.0, day 14, 40° C.): 0%
- Purity (%) at day 14 (60° C.) (solvent 50% ethanol, pH 7.0, day 14, 60° C.): 0%
- Purity(%) at day 0 (solvent 50% ethanol, pH 8.0, day 0): 99.2 ± 0.3%
- Purity(%) at day 14 (5° C.) (solvent 50% ethanol, pH 8.0, day 14, 5° C.): 60.3 ± 0.4%
- Purity(%) at day 14 (25° C.) (solvent 50% ethanol, pH 8.0, day 14, 25° C.): 23.9 ± 0.4%
- Purity(%) at day 14 (40° C.) (solvent 50% ethanol, pH 8.0, day 14, 40° C.): 0%
- Purity (%) at day 14 (60° C.) (solvent 50% ethanol, pH 8.0, day 14, 60° C.): 0%
- Purity(%) at day 0 (solvent water, pH 1.0, day 0): 99.1 ± 0.3%
- Purity(%) at day 14 (5° C.) (solvent water, pH 1.0, day 14, 5° C.): 90.8 ± 0.3%
- Purity(%) at day 14 (25° C.) (solvent water, pH 1.0, day 14, 25° C.): 62.2 ± 0.4%
- Purity(%) at day 14 (40° C.) (solvent water, pH 1.0, day 14, 40° C.): 0%
- Purity (%) at day 14 (60° C.) (solvent water, pH 1.0, day 14, 60° C.): 0%
- Purity(%) at day 0 (solvent water, pH 2.0, day 0): 99.3 ± 0.2%
- Purity(%) at day 14 (5° C.) (solvent water, pH 2.0, day 14, 5° C.): 96.3 ± 0.2%
- Purity(%) at day 14 (25° C.) (solvent water, pH 2.0, day 14, 25° C.): 83.3 ± 0.3%
- Purity(%) at day 14 (40° C.) (solvent water, pH 2.0, day 14, 40° C.): 0%
- Purity (%) at day 14 (60° C.) (solvent water, pH 2.0, day 14, 60° C.): 0%
- Purity(%) at day 0 (solvent water, pH 3.0, day 0): 99.5 ± 0.2%
- Purity(%) at day 14 (25° C.) (solvent water, pH 3.0, day 14, 25° C.): 88.5 ± 0.2%
- Purity(%) at day 14 (40° C.) (solvent water, pH 3.0, day 14, 40° C.): 2.5 ± 0.2%
- Purity (%) at day 14 (60° C.) (solvent water, pH 3.0, day 14, 60° C.): 0%
- Purity(%) at day 0 (solvent water, pH 3.7, day 0): 99.5 ± 0.1%
- Purity(%) at day 14 (25° C.) (solvent water, pH 3.7, day 14, 25° C.): 96.1 ± 0.1%
- Purity(%) at day 14 (40° C.) (solvent water, pH 3.7, day 14, 40° C.): 14.5 ± 0.3%
- Purity (%) at day 14 (60° C.) (solvent water, pH 3.7, day 14, 60° C.): 0%
- Purity(%) at day 0 (solvent water, pH 4.0, day 0): 99.6 ± 0.1%
- Purity(%) at day 14 (25° C.) (solvent water, pH 4.0, day 14, 25° C.): 96.6 ± 0.2%
- Purity(%) at day 14 (40° C.) (solvent water, pH 4.0, day 14, 40° C.): 14.5 ± 0.3%
- Purity (%) at day 14 (60° C.) (solvent water, pH 4.0, day 14, 60° C.): 0%
- Purity(%) at day 0 (solvent water, pH 4.3, day 0): 99.7 ± 0.1%
- Purity(%) at day 14 (25° C.) (solvent water, pH 4.3, day 14, 25° C.): 96.6 ± 0.1%
- Purity(%) at day 14 (40° C.) (solvent water, pH 4.3, day 14, 40° C.): 12.9 ± 0.2%
- Purity (%) at day 14 (60° C.) (solvent water, pH 4.3, day 14, 60° C.): 0%
- Purity(%) at day 0 (solvent water, pH 4.6, day 0): 99.5 ± 0.2%
- Purity(%) at day 14 (25° C.) (solvent water, pH 4.6, day 14, 25° C.): 96.5 ± 0.2%
- Purity(%) at day 14 (40° C.) (solvent water, pH 4.6, day 14, 40° C.): 3.6 ± 0.2%
- Purity (%) at day 14 (60° C.) (solvent water, pH 4.6, day 14, 60° C.): 0%
- Purity(%) at day 0 (solvent water, pH 5.0, day 0): 99.5 ± 0.1%
- Purity(%) at day 14 (5° C.) (solvent water, pH 5.0, day 14, 5° C.): 97.3 ± 0.1%
- Purity(%) at day 14 (25° C.) (solvent water, pH 5.0, day 14, 25° C.): 92.5 ± 0.2%
- Purity(%) at day 14 (40° C.) (solvent water, pH 5.0, day 14, 40° C.): 1.0%
- Purity (%) at day 14 (60° C.) (solvent water, pH 5.0, day 14, 60° C.): 0%
- Purity(%) at day 0 (solvent water, pH 6.0, day 0): 99.4 ± 0.3%
- Purity(%) at day 14 (5° C.) (solvent water, pH 6.0, day 14, 5° C.): 92.1 ± 0.2%
- Purity(%) at day 14 (25° C.) (solvent water, pH 6.0, day 14, 25° C.): 84.7 ± 0.3%
- Purity(%) at day 14 (40° C.) (solvent water, pH 6.0, day 14, 40° C.): 0%
- Purity (%) at day 14 (60° C.) (solvent water, pH 6.0, day 14, 60° C.): 0%
- Purity(%) at day 0 (solvent water, pH 7.0, day 0): 99.2 ± 0.3%
- Purity(%) at day 14 (5° C.) (solvent water, pH 7.0, day 14, 5° C.): 87.9 ± 0.3%
- Purity(%) at day 14 (25° C.) (solvent water, pH 7.0, day 14, 25° C.): 59.8 ± 0.3%
- Purity(%) at day 14 (40° C.) (solvent water, pH 7.0, day 14, 40° C.): 0%
- Purity (%) at day 14 (60° C.) (solvent water, pH 7.0, day 14, 60° C.): 0%
- Purity(%) at day 14 (5° C.) (solvent water, pH 8.0, day 14, 5° C.): 57.9 ± 0.3%
- Purity(%) at day 14 (25° C.) (solvent water, pH 8.0, day 14, 25° C.): 21.7 ± 0.4%
- Purity(%) at day 14 (40° C.) (solvent water, pH 8.0, day 14, 40° C.): 0%
- Purity (%) at day 14 (60° C.) (solvent water, pH 8.0, day 14, 60° C.): 0%
